The text below walks through data of patent publication US12378224B2 (Dong-A Socio Holdings Co., Ltd., priority 2016, dated 2025).

The target in this test is human MER (528-end) (Homo sapiens (Human), UniProt Q12866). Put plainly: HTRF Kinase Activity Biochemical Assay (KinEASE-TK). To be noted: 10 uM ATP. Summed up: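 Recombinant human MER (528-end) phosphorylated biotin-TK peptide substrate, 1 h at room temperature. Reaction stopped with detection buffer containing 0.375 nM Eu3+-cryptate anti-TK antibody and 0.062 uM streptavidin-XL665, 1 h further. Activity taken as HTRF ratio 665/620 nm ×10,000, 340 nm excitation.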
human MER (528-end), sequence (Q12866 528-999 limits assumed): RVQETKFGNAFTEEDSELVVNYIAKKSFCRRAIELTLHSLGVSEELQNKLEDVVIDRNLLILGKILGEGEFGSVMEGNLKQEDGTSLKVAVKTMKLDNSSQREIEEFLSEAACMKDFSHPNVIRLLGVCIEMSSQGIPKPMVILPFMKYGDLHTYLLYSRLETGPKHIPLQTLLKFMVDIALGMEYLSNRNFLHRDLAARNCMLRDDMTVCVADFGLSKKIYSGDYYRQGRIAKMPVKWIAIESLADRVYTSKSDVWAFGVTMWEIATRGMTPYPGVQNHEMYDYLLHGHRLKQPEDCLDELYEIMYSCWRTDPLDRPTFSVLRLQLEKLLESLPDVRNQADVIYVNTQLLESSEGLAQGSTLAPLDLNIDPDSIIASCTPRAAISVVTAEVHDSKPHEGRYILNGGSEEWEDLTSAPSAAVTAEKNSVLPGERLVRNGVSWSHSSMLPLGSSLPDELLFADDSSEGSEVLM

For orientation: IC50 means the concentration needed to halve the response being measured. Read a low IC50 as higher potency. `Nc1ncc(-c2cnn(C3CCNCC3)c2)cc1C(=O)NC1CCN(Cc2ccccc2)C1` (stereo not shown) [Example 152, 2-amino-N-(1-benzylpyrrolidin-3-yl)-5-(1-(piperidin-4-yl)-1H-pyrazol-4-yl)nicotinamide]: the concentration for half-maximal inhibition (IC50) lay in the range of 0.1 to 1 µM.
For `Nc1ncc(-c2cnn(C3CCNCC3)c2)cc1C(=O)N[C@@H]1CCN(Cc2ccc(F)cc2)C1` [Example 153, (R)-2-amino-N-(1-(4-fluorobenzyl)pyrrolidin-3-yl)-5-(1-(piperidin-4-yl)-1H-pyrazol-4-yl)nicotinamide] the value was 0.1 to 1 µM; for `COc1cccc(CN2CC[C@@H](NC(=O)c3cc(-c4cnn(C5CCNCC5)c4)cnc3N)C2)c1` [Example 154, (R)-2-amino-N-(1-(3-methoxybenzyl)pyrrolidin-3-yl)-5-(1-(piperidin-4-yl)-1H-pyrazol-4-yl)nicotinamide], 0.1 to 1 µM.
To `Nc1ncc(-c2cnn(C3CCNCC3)c2)cc1C(=O)N[C@@H]1CCN(Cc2ccc([N+](=O)[O-])cc2)C1` [Example 156, (R)-2-amino-N-(1-(4-nitrobenzyl)pyrrolidin-3-yl)-5-(1-(piperidin-4-yl)-1H-pyrazol-4-yl)nicotinamide] belongs over 1 µM.
To `Nc1ncc(-c2cnn(C3CCNCC3)c2)cc1C(=O)N[C@@H]1CCN(Cc2cc(F)c(F)cc2F)C1` [Example 157, (R)-2-amino-5-(1-(piperidin-4-yl)-1H-pyrazol-4-yl)-N-(1-(2,4,5-trifluorobenzyl)pyrrolidin-3-yl)nicotinamide] belongs over 1 µM.
For the compound `Nc1ncc(-c2cnn(C3CCNCC3)c2)cc1C(=O)N[C@@H]1CCN(Cc2ccc(F)c(Cl)c2)C1` [Example 158, (R)-2-amino-N-(1-(3-chloro-4-fluorobenzyl)pyrrolidin-3-yl)-5-(1-(piperidin-4-yl)-1H-pyrazol-4-yl)nicotinamide], the IC50 fell in the range of 0.1 to 1 µM.
To `Nc1ncc(-c2cnn(C3CCNCC3)c2)cc1C(=O)N[C@@H]1CCN(Cc2c(Cl)cccc2Cl)C1` [Example 159, (R)-2-amino-N-(1-(2,6-dichlorobenzyl)pyrrolidin-3-yl)-5-(1-(piperidin-4-yl)-1H-pyrazol-4-yl)nicotinamide] belongs over 1 µM; to `Nc1ncc(-c2cnn(C3CCNCC3)c2)cc1C(=O)N[C@@H]1CCN(Cc2ccc(F)c(F)c2)C1` [Example 160, (R)-2-amino-N-(1-(3,4-difluorobenzyl)pyrrolidin-3-yl)-5-(1-(piperidin-4-yl)-1H-pyrazol-4-yl)nicotinamide], over 1 µM.
To `Nc1ncc(-c2cnn(C3CCNCC3)c2)cc1C(=O)N[C@@H]1CCN(Cc2c(F)ccc(F)c2F)C1` [Example 162, (R)-2-amino-5-(1-(piperidin-4-yl)-1H-pyrazol-4-yl)-N-(1-(2,3,6-trifluorobenzyl)pyrrolidin-3-yl)nicotinamide] belongs over 1 µM; to `Cc1nc(C)c(CN2CC[C@@H](NC(=O)c3cc(-c4cnn(C5CCNCC5)c4)cnc3N)C2)s1` [Example 163, (R)-2-amino-N-(1-((2,4-dimethylthiazol-5-yl)methyl)pyrrolidin-3-yl)-5-(1-(piperidin-4-yl)-1H-pyrazol-4-yl)nicotinamide], over 1 µM.
To `Cc1ccc(C)c(CN2CC[C@@H](NC(=O)c3cc(-c4cnn(C5CCNCC5)c4)cnc3N)C2)c1` [Example 166, (R)-2-amino-N-(1-(2,5-dimethylbenzyl)pyrrolidin-3-yl)-5-(1-(piperidin-4-yl)-1H-pyrazol-4-yl)nicotinamide] belongs over 1 µM; to `Nc1ncc(-c2cnn(C3CCNCC3)c2)cc1C(=O)N[C@@H]1CCN(Cc2ccccc2C(F)(F)F)C1` [Example 168, (R)-2-amino-5-(1-(piperidin-4-yl)-1H-pyrazol-4-yl)-N-(1-(2-(trifluoromethyl)benzyl)pyrrolidin-3-yl)nicotinamide], over 1 µM; to `Nc1ncc(-c2cnn(C3CCNCC3)c2)cc1C(=O)N[C@@H]1CCN(CC2CC=CCC2)C1` (stereo partly drawn) [Example 169, 2-amino-N-((3R)-1-(cyclohex-3-en-1-ylmethyl)pyrrolidin-3-yl)-5-(1-(piperidin-4-yl)-1H-pyrazol-4-yl)nicotinamide], over 1 µM.
